Source: patent publication US10189785B2, “Heterocyclic compound” (TAKEDA PHARMACEUTICAL COMPANY LIMITED, priority 2015, dated 2019)

Legend:
[1] = target: T1, SPT (SPT2-expressing membrane fraction: human SPT1, human SPT2 and human ssSPTa) (Homo sapiens, UniProt O15269+O15270); test: SPT enzyme inhibition test (Test Example 1); type: biochemical; conditions: read-out: Rate of inhibition (%) at 1 μM
T1 construct: Full-length human SPT1, human SPT2 and human ssSPTa used; made in house; host or cells: FreeStyle 293 cells (pcDNA3.1 vectors, cotransfection); crude membrane fraction used
T1 sequence (O15269 1-473): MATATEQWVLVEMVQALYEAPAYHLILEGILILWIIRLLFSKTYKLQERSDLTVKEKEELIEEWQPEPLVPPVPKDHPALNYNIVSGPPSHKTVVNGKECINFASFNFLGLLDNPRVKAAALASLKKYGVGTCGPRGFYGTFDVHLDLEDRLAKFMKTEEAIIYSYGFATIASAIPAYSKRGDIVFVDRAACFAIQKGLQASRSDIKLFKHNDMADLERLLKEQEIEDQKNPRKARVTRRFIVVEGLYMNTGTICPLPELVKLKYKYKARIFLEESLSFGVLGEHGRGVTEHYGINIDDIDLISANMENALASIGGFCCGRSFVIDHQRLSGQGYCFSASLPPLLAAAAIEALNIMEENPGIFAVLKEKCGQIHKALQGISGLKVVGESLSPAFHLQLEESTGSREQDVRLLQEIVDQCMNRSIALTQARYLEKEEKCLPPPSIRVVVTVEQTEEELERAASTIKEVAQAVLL
T1 sequence (O15270 1-562): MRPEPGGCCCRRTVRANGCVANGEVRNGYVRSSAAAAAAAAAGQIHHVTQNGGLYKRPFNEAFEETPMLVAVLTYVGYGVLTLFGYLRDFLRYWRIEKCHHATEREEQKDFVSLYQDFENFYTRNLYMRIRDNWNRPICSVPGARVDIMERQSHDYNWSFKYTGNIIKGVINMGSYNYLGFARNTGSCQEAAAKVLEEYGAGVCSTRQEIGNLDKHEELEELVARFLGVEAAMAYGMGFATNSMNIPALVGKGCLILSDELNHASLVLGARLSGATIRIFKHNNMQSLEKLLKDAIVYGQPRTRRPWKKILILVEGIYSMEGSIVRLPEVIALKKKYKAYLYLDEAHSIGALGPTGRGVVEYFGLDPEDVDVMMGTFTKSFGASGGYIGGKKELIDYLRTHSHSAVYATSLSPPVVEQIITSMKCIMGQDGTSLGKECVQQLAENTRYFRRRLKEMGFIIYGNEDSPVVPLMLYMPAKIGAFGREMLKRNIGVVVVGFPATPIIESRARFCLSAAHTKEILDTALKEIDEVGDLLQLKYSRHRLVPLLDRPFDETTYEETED
T1 sequence (Q969W0 1-71 partner): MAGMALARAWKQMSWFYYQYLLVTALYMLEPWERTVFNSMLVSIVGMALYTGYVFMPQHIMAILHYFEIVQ
Protocol: After culture for 3 days, the cells were recovered and frozen at −80° C. to obtain expressing cells. The frozen cells were suspended in a 50 mM Hepes buffer (pH 7.5) containing 250 mM sucrose, 5 mM ethylenediaminetetraacetic acid (EDTA), 5 mM dithiothreitol (DTT) and Complete, EDTA-free (Roche Applied Science, Penzberg, Upper Bavaria, Germany). The cells were disrupted (on ice, 20,000 rpm, 20 sec×2) using POLYTORON (Central Scientific Commerce, Inc.). After centrifugation at 2000 rpm (850×g) for 10 minutes, the supernatant was recovered. Subsequently, the supernatant was centrifuged at 40,000 rpm (186,010×g) for 60 minutes, and the supernatant was discarded. The pellets were suspended in a 50 mM Hepes buffer (pH 7.5) containing 5 mM EDTA, 5 mM DTT and Complete, EDTA-free, passed through a 40-μm cell strainer and stored at −80° C. The resultant was used as a SPT2-expressing membrane fraction. The protein concentration was determined using CBB Protein Assay with bovine serum albumin used as standards.
5 μL of each test compound was mixed with 10 μL of the 100 μg/mL SPT2-expressing membrane fraction using an assay buffer (100 mM Hepes (pH 8.0) containing 2.5 mM EDTA, 5 mM DTT and 0.01% fatty acid-free bovine serum albumin), and the mixture was left standing at room temperature for 60 minutes. Subsequently, 5 μL of a substrate solution containing 2 mM L-serine and 20 μM palmitoyl CoA was added thereto, and an enzyme reaction was carried out in a 384-well plate using 20 μL in total of the reaction system. After reaction at room temperature for 15 minutes, the reaction was terminated by the addition of 20 μL of a 2% aqueous formic acid solution. Subsequently, 40 μL of acetonitrile containing 600 nM C17-sphinganine (Avanti Polar Lipids, Inc., Alabaster, Ala., U.S.) was added thereto as an internal standard. The reaction sample was subjected to on-line solid-layer extraction using RapidFire 300 (Agilent Technologies Inc., Santa Clara, Calif., U.S.). […] Mass chromatograms were obtained using Analyst software (version 1.5.0, AB SCIEX). Their mass chromatogram areas were respectively calculated, and the rate of inhibition (%) by the test compound was calculated using an area ratio (the value of the reaction product was divided by the value of the internal standard).

[2] = system: lung adenocarcinoma cell line HCC4006; test: HCC4006 cell growth inhibition test (Test Example 2); type: cell-based; conditions: Homo sapiens, 120 h; 1 μM test compound; HCC4006 cells, culture for 5 days, CellTiter-Glo; read-out: Rate of inhibition (%) at 1 μM
Protocol: A lung adenocarcinoma cell line HCC4006 (ATCC) was cultured using an RPMI-1640 medium (Wako Pure Chemical Industries, Ltd.) containing 10% fetal bovine serum and penicillin/streptomycin. 250 cells per well were inoculated into 40 μL of a medium in a 384-well culture plate. On the next day, 10 μL of each test compound was added to the cells. After culture for 5 days, the medium was discarded, and 30 μL of CellTiter-Glo Luminescent Cell Viability Assay solution (Promega Corp., Fitchburg, Wis., U.S.) was added to each well. Light emission signals were measured using EnVision (PerkinElmer, Inc., Waltham, Mass., U.S.).
The rate of inhibition (%) by the test compound was calculated according to the following expression: Rate of inhibition (%)=(1−(Count of the test compound−Blank)/(Control−Blank))×100
In the above expression, a count under compound non-addition conditions was indicated as a control, and a count under cell-free conditions was indicated as a blank.

| inhibition at 1 µM [1] [%] | SMILES | inhibition at 1 µM [2] [%] |
| --- | --- | --- |
| 101 | O=C(N[C@@H]1CCN(C(=O)c2cc(Cl)c3nccnc3c2)C[C@@H]1c1ccccc1)c1ncccc1C(F)(F)F [Example 241B, N-((3S,4R)-1-((8-Chloroquinoxalin-6-yl)carbonyl)-3-phenylpiperidin-4-yl)-3-(trifluoromethyl)pyridine-2-carboxamide] | 54 |
| 98 | Cn1ncc(C(=O)N[C@@H]2CCN(C(=O)c3ccc4nccnc4c3)C[C@@H]2c2ccccc2)c1Cl [Example 132B, 5-chloro-1-methyl-N-((3S,4R)-3-phenyl-1-(quinoxalin-6-ylcarbonyl)piperidin-4-yl)-1H-pyrazole-4-carboxamide] | 45 |
| 102 | O=C(N[C@@H]1CCN(C(=O)c2cc(Cl)c3nccnc3c2)C[C@@H]1c1ccccc1)c1ncccc1OC(F)F [Example 31B, N-((3S,4R)-1-((8-Chloroquinoxalin-6-yl)carbonyl)-3-phenylpiperidin-4-yl)-3-(difluoromethoxy)pyridine-2-carboxamide] | 57 |
| 102 | COc1cc(C(=O)N2CC[C@@H](NC(=O)c3cc(C4CC4)nn3C)[C@@H](c3ccccc3)C2)cc2nccnc12 [Example 330B, 3-cyclopropyl-N-((3S,4R)-1-((8-methoxyquinoxalin-6-yl)carbonyl)-3-phenylpiperidin-4-yl)-1-methyl-1H-pyrazole-5-carboxamide] | 49 |
| 99 | COc1cc(C(=O)N2CCC(NC(=O)c3ccccc3Cl)c3c2cnn3C)cnc1OC (stereo not shown) [Example 80A, 2-chloro-N-(4-((5,6-dimethoxypyridin-3-yl)carbonyl)-1-methyl-4,5,6,7-tetrahydro-1H-pyrazolo[4,3-b]pyridin-7-yl)benzamide] | 44 |
| 101 | CN(C)CCOc1cc(C(F)(F)F)c(C(=O)N[C@@H]2CCN(C(=O)c3cc(Cl)c4nccnc4c3)C[C@@H]2c2ccccc2)cn1 [Example 38B, N-((3S,4R)-1-((8-chloroquinoxalin-6-yl)carbonyl)-3-phenylpiperidin-4-yl)-6-(2-(dimethylamino)ethoxy)-4-(trifluoromethyl)nicotinamide] | 46 |
| 101 | COc1ncc(C(=O)N2CCC(NC(=O)c3ccc(Cl)cc3C(F)(F)F)c3c2cnn3CC(F)F)cc1Cl (stereo not shown) [Example 126A, 4-Chloro-N-(4-((5-chloro-6-methoxypyridin-3-yl)carbonyl)-1-(2,2-difluoroethyl)-4,5,6,7-tetrahydro-1H-pyrazolo[4,3-b]pyridin-7-yl)-2-(trifluoromethyl)benzamide] | 45 |
| 101 | COc1cc(C(=O)N2CC[C@@H](NC(=O)c3ccccc3S(C)(=O)=O)[C@@H](c3ccccc3)C2)cnc1OC [Example 141B, N-((3S,4R)-1-((5,6-dimethoxypyridin-3-yl)carbonyl)-3-phenylpiperidin-4-yl)-2-(methylsulfonyl)benzamide] | 52 |
| 103 | Cc1cc(C(=O)N2CC[C@@H](NC(=O)c3ncccc3C(F)(F)F)[C@@H](c3ccccc3)C2)cn2c(C)cnc12 [Example 279B, N-((3S,4R)-1-((3,8-dimethylimidazo[1,2-a]pyridin-6-yl)carbonyl)-3-phenylpiperidin-4-yl)-3-(trifluoromethyl)pyridine-2-carboxamide] | 44 |
| 100 | COc1cc(C(=O)N2CC[C@@H](NC(=O)c3ccccc3OC(F)(F)F)[C@@H](c3ccccc3)C2)cnc1OC [Example 70B, N-((3S,4R)-1-((5,6-dimethoxypyridin-3-yl)carbonyl)-3-phenylpiperidin-4-yl)-2-(trifluoromethoxy)benzamide] | 56 |
| 99 | O=C(N[C@@H]1CCN(C(=O)c2cc(Cl)c3nccnc3c2)C[C@@H]1c1ccccc1)c1ccccc1OC(F)(F)F [Example 254B, N-((3S,4R)-1-((8-chloroquinoxalin-6-yl)carbonyl)-3-phenylpiperidin-4-yl)-2-(trifluoromethoxy)benzamide] | 55 |
| 100 | CS(=O)(=O)c1ccc(C(=O)N2CC[C@@H](NC(=O)c3ccccc3OC(F)(F)F)[C@@H](c3ccccc3)C2)cc1Cl [Example 102B, N-((3S,4R)-1-(3-chloro-4-(methylsulfonyl)benzoyl)-3-phenylpiperidin-4-yl)-2-(trifluoromethoxy)benzamide] | 46 |
| 101 | Cn1cnc2ccc(C(=O)N3CC[C@@H](NC(=O)c4ccccc4OC(F)(F)F)[C@@H](c4ccccc4)C3)cc21 [Example 104B, N-((3S,4R)-1-((1-methyl-1H-benzimidazol-6-yl)carbonyl)-3-phenylpiperidin-4-yl)-2-(trifluoromethoxy)benzamide] | 53 |
| 98 | COc1ncc(C(=O)N2CCC(NC(=O)c3ccccc3Cl)c3c2cnn3C)cc1Cl (stereo not shown) [Example 84A, 2-chloro-N-(4-((5-chloro-6-methoxypyridin-3-yl)carbonyl)-1-methyl-4,5,6,7-tetrahydro-1H-pyrazolo[4,3-b]pyridin-7-yl)benzamide] | 32 |
|  | COc1ccc(C(=O)N2CCC(NC(=O)c3ccccc3Cl)c3ccc(Cl)cc32)cc1OC (stereo not shown) [Example 201A, 2-Chloro-N-(7-chloro-1-(3,4-dimethoxybenzoyl)-1,2,3,4-tetrahydroquinolin-4-yl)benzamide] | 40 |
|  | COc1ccc(C(=O)N2CCC(NC(=O)c3ccccc3Cl)c3c2cnn3C(C)C)cc1OC (stereo not shown) [Example 36A, 2-Chloro-N-(4-(3,4-dimethoxybenzoyl)-1-isopropyl-4,5,6,7-tetrahydro-1H-pyrazolo[4,3-b]pyridin-7-yl)benzamide] | 47 |
|  | COc1ccc(C(=O)N2CCC(NC(=O)c3ccccc3Cl)c3c2cnn3C)cc1OC (stereo not shown) [Example 2A, 2-Chloro-N-(4-(3,4-dimethoxybenzoyl)-1-methyl-4,5,6,7-tetrahydro-1H-pyrazolo[4,3-b]pyridin-7-yl)benzamide] | 36 |
